In one test the target is T1, Full length Akt1 (Homo sapiens, UniProt P31749).
T1 construct: Full length Akt1 (cat #P2999); purchased PerkinElmer P2999
The test is described as follows: In vitro Akt kinase enzymatic assay (HTRF), Akt1. It is filed as biochemical. The settings on record: 0.4 nM Akt1, substrate solution with 5 mM ATP, 25° C. 1 hr. In short, it runs like this:
(§1)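 Full-length enzyme (0.4 nM Akt1 or 0.6 nM Akt2/Akt3 in the enzyme solution) was combined with a substrate solution of 0.1 μM ULight-Crosstide plus 5 mM ATP in pH 7.8 HEPES/MgCl2/DTT/Tween20 buffer and reacted 1 hr at 25° C. The EDTA stop contained Eu anti-phospho-Crosstide; IC50 was fitted from 11-point HTRF inhibition curves.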
A general note: TR-FRET usually uses a lanthanide donor and a delayed reading to cut background.

In a further test the target is T2, Full length Akt2 (Homo sapiens, UniProt P31751).
T2 construct: Full length Akt1 (cat #P2999), Akt2 (cat #PV3184); purchased PerkinElmer PV3184
T2 sequence (P31751 whole entry): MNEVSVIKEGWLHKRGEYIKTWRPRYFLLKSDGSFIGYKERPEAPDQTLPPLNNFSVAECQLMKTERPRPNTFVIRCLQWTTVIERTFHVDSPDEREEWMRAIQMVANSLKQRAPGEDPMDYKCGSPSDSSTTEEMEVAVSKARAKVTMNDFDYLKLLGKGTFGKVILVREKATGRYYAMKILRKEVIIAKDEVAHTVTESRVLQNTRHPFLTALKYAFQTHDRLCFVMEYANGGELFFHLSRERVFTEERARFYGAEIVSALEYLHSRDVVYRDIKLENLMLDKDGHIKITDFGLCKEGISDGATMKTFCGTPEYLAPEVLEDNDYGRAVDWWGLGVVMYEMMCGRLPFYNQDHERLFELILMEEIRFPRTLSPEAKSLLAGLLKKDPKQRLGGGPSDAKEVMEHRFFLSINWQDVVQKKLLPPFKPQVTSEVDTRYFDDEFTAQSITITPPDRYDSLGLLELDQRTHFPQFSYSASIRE
Briefly: In vitro Akt kinase enzymatic assay (HTRF), Akt2. It counts as biochemical. The note with it: 0.6 nM Akt2, substrate solution with 5 mM ATP, 25° C. 1 hr. In short, it runs like this:
as §1

The next test concerns the target T3, Full length Akt3 (Homo sapiens, UniProt Q9Y243).
T3 construct: Full length Akt1 (cat #P2999), Akt2 (cat #PV3184), Akt3 (cat #PV3185); purchased PerkinElmer PV3185
The test is described as follows: In vitro Akt kinase enzymatic assay (HTRF), Akt3. It is filed as biochemical. The settings on record: 0.6 nM Akt3, substrate solution with 5 mM ATP, 25° C. 1 hr. Put shortly:
as §1

In another test the target is T4, Full length PKA (Homo sapiens, UniProt P17612).
T4 construct: Full length PKA (cat #P2912); purchased Invitrogen P2912
Briefly: PKA in vitro enzymatic assay (HTRF). It counts as biochemical. The settings on record: 0.035 nM enzyme solution, substrate solution with 5 mM ATP, 25° C. 1 hr. In short, it runs like this: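 IC50 came from curve fitting of percent inhibition across an 11-point, 3-fold compound series, with HTRF read after EDTA quench and Tb-labelled p-S133 antibody detection. Enzyme (0.035 nM solution) and substrate (0.1 μM fluorescein-CREBtide solution containing 5 mM ATP) reacted for 1 h at 25°C. The buffer was HEPES 50 mM pH 7.8 with 10 mM MgCl2, 5 mM DTT and 0.005% Tween20.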

Test [1] concerns LNCaP cells (human prostate tumor cell line). The test is described as follows: Akt LNCaP proliferation assay (MTS). It is filed as cell-based. The note with it: 48 hours. In short, it runs like this:
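Cells plated at 10,000/well in RPMI with 2% FBS overnight at 37° C., 5% CO2, then exposed to compound at 1000 nM to 0.5 nM (3-fold dilutions) for 48 hours. Viable cells measured by MTS colorimetric read-out after 2 hours; IC50 taken as concentration giving 50% inhibition of total proliferation.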

The mark [2] stands for this setting: 2% fetal bovine serum, class symbols.

pIC50: −log10 of the molar value.

T3 sequence (Q9Y243 whole entry): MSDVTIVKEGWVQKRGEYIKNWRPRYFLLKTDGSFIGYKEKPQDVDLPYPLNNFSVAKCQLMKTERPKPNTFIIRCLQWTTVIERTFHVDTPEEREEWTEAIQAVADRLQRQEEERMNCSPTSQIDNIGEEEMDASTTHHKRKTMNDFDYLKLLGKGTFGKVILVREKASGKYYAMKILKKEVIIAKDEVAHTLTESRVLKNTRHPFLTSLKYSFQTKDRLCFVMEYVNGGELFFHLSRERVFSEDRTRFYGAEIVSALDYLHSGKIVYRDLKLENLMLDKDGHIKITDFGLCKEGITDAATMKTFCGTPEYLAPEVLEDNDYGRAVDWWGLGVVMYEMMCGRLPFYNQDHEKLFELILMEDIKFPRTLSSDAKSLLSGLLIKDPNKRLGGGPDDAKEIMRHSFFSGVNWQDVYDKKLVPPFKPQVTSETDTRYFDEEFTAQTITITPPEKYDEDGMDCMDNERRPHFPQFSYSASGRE
T1 sequence (P31749 whole entry): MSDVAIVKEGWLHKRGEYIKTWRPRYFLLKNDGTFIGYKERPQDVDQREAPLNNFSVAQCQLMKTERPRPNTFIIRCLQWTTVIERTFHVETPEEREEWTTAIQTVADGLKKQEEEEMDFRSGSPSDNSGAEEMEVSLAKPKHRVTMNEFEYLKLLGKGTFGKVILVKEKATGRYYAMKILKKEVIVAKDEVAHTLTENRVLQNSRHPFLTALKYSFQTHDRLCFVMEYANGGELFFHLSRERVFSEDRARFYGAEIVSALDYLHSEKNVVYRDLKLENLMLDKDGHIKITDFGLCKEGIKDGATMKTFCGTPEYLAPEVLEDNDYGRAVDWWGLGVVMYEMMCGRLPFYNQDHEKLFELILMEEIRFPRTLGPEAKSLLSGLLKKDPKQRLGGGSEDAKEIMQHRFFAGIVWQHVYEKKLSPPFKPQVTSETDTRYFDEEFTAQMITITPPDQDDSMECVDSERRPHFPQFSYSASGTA

In the case of `Cn1nccc1-c1cc2c(cn1)C(=O)N([C@H](CN)Cc1cc(F)cc(F)c1)C2` [Example 102, 2-[(1S)-2-amino-1-(3,5-difluoro-benzyl)ethyl]-6-(1-methyl-1H-pyrazol-5-yl)-1,2-dihydro-3H-pyrrolo[3,4-c]pyridin-3-one], the pIC50 (in general, the negative decadic logarithm of the IC50, by convention in mol/L) was above 6.30 against Full length Akt1; above 6.30 against Full length Akt2; above 6.30 on Full length Akt3; 5.30 to 6.30 at Full length PKA; above 6.30 in test [1] (setting [2]).

With `Cn1nccc1-c1ccc2c(c1)CN([C@H](CN)Cc1cccc(-c3cncnc3)c1)C2=O` [Example 87, 2-[(1S)-2-amino-1-(3-pyrimidin-5-ylbenzyl)ethyl]-5-(1-methyl-1H-pyrazol-5-yl)isoindolin-1-one], the negative-log IC50 (pIC50) is 5.30 to 6.30 on Full length Akt1; below 5.30 on Full length Akt2; below 5.30 at Full length Akt3; below 5.30 against Full length PKA; below 6.00 in test [1] (given as a bound, final concentrations 1000 nM to 0.5 nM).

In the case of `CCOCc1cnn(C)c1-c1ccc2c(c1)CN([C@H](CN)Cc1cc(F)cc(F)c1)C2=O` [Example 44, 2-[(1S)-2-amino-1-(3,5-difluorobenzyl)ethyl]-5-(4-ethoxymethyl-1-methyl-1H-pyrazol-5-yl)isoindolin-1-one], the pIC50 was above 6.30 against Full length Akt1; above 6.30 against Full length Akt2; above 6.30 on Full length Akt3; 5.30 to 6.30 against Full length PKA; above 6.30 in test [1] (setting [2]).

Take `Cn1nccc1-c1cc2c(cn1)C(=O)N([C@H](CN)Cc1cccc(F)c1)C2` [Example 93, 2-[(1S)-2-amino-1-(3-fluorobenzyl)ethyl]-6-(1-methyl-1H-pyrazol-5-yl)-1,2-dihydro-3H-pyrrolo[3,4-c]pyridin-3-one]: the pIC50 is above 6.30 on Full length Akt1; above 6.30 at Full length Akt2; above 6.30 at Full length Akt3; 5.30 to 6.30 against Full length PKA; above 6.30 in test [1] (setting [2]).

As to `C#Cc1cccc(C[C@@H](CN)N2Cc3cc(-c4c(Cl)cnn4C)ccc3C2=O)c1` [Example 89, 2-[(1S)-2-amino-1-(3-ethynylbenzyl)ethyl]-5-(4-chloro-1-methyl-1H-pyrazol-5-yl)isoindolin-1-one], the pIC50 at Full length Akt1 is above 6.30; against Full length Akt2, above 6.30; at Full length Akt3, above 6.30; at Full length PKA, 5.30 to 6.30; in test [1] (setting [2]) it was above 6.30.

Turning to `Cn1nccc1-c1ccc2c(c1)CN([C@H](CN)Cc1ccccn1)C2=O` [Example 79, 2-[(1S)-2-amino-1-(pyridin-2-ylmethyl)ethyl]-5-(1-methyl-1H-pyrazol-5-yl)isoindolin-1-one], the pIC50 against Full length Akt1 was above 6.30; against Full length Akt2, above 6.30; against Full length Akt3, 5.30 to 6.30; at Full length PKA it was below 5.30; in test [1] (setting [2]), 5.30 to 6.30.

Turning to `Cn1ncc(Cl)c1-c1ccc2c(c1)CN([C@H](CN)Cc1cccc(C(F)(F)F)c1)C2=O` (stereo in doubt) [Example 61, 2-{2-amino-1-[3-(trifluoromethyl)benzyl]ethyl}-5-(4-chloro-1-methyl-1H-pyrazol-5-yl)isoindolin-1-one], the pIC50 is above 6.30 against Full length Akt1; above 6.30 against Full length Akt2; above 6.30 against Full length Akt3; 5.30 to 6.30 against Full length PKA; 5.30 to 6.30 in test [1] (setting [2]).

As to `Cc1cnn(C)c1-c1cc2c(cn1)C(=O)N([C@H](CN)Cc1cccc(F)c1)C2` [Example 94, 2-[(1S)-2-amino-1-(3-fluorobenzyl)ethyl]-6-(4-methyl-1-methyl-1H-pyrazol-5-yl)-1,2-dihydro-3H-pyrrolo[3,4-c]pyridin-3-one], the pIC50 is above 6.30 against Full length Akt1; above 6.30 on Full length Akt2; above 6.30 at Full length Akt3; 5.30 to 6.30 against Full length PKA; above 6.30 in test [1] (setting [2]).

Turning to `CC(C)OCc1cnn(C)c1-c1cc2c(cn1)C(=O)N([C@H](CN)Cc1cccc(F)c1)C2` [Example 95, 2-[(1S)-2-amino-1-(3-fluorobenzyl)ethyl]-6-[4-(2-propoxymethyl)-1-methyl-1H-pyrazol-5-yl]-1,2-dihydro-3H-pyrrolo[3,4-c]pyridin-3-one], the pIC50 against Full length Akt1 is above 6.30; against Full length Akt2, above 6.30; against Full length Akt3, above 6.30; on Full length PKA it was below 5.30; in test [1] (setting [2]), above 6.30.

Regarding `Cn1ncc(Cl)c1-c1ccc2c(c1)CN([C@H](CN)Cc1cccnc1)C2=O` [Example 65, 2-[(1S)-2-amino-1-(pyridin-3-ylmethyl)ethyl]-5-(4-chloro-1-methyl-1H-pyrazol-5-yl)isoindolin-1-one], the negative logarithm of the IC50 (pIC50) was above 6.30 on Full length Akt1; above 6.30 against Full length Akt2; above 6.30 at Full length Akt3; below 5.30 at Full length PKA; above 6.30 in test [1] (setting [2]).

In the case of `Cn1ncc(C#N)c1-c1ccc2c(c1)CN([C@H](CN)Cc1cc(F)cc(F)c1)C2=O` [Example 53, 2-[(1S)-2-amino-1-(3,5-difluorobenzyl)ethyl]-5-(4-cyano-1-methyl-1H-pyrazol-5-yl)isoindolin-1-one], the pIC50 at Full length Akt1 is above 6.30; against Full length Akt2, above 6.30; on Full length Akt3 it was above 6.30; against Full length PKA, 5.30 to 6.30; in test [1] (setting [2]) it was above 6.30.

Take `CSCc1cnn(C)c1-c1ccc2c(c1)CN([C@H](CN)Cc1cccc(F)c1)C2=O` [Example 10]: the negative-log IC50 (pIC50) on Full length Akt1 is above 6.30; against Full length Akt2, 5.30 to 6.30; on Full length Akt3, 5.30 to 6.30; on Full length PKA, below 5.30; in test [1] (setting [2]), 5.30 to 6.30.

Regarding `Cn1ncc(COC2CCC2)c1-c1cc2c(cn1)C(=O)N([C@H](CN)Cc1cccc(F)c1)C2` [Example 97, 2-[(1S)-2-amino-1-(3-fluorobenzyl)ethyl]-6-[4-(cyclobutoxymethyl)-1-methyl-1H-pyrazol-5-yl]-1,2-dihydro-3H-pyrrolo[3,4-c]pyridin-3-one], the negative logarithm of the IC50 (pIC50) was above 6.30 on Full length Akt1; above 6.30 at Full length Akt2; above 6.30 against Full length Akt3; below 5.30 on Full length PKA; above 6.30 in test [1] (setting [2]).

For the molecule `Cn1ncc(COC2CCC2)c1-c1ccc2c(c1)CN([C@H](CN)Cc1cc(F)cc(F)c1)C2=O` [Example 47, 2-[(1S)-2-amino-1-(3,5-difluorobenzyl)ethyl]-5-[4-(cyclobutoxymethyl)-1-methyl-1H-pyrazol-5-yl]isoindolin-1-one], the negative logarithm of the IC50 (pIC50) is above 6.30 against Full length Akt1; above 6.30 against Full length Akt2; above 6.30 against Full length Akt3; 5.30 to 6.30 at Full length PKA; above 6.30 in test [1] (setting [2]).

With `Cn1nccc1-c1ccc2c(c1)CN([C@H](CN)Cc1cccnc1)C2=O` [Example 78, 2-[(1S)-2-amino-1-(pyridin-3-ylmethyl)ethyl]-5-(1-methyl-1H-pyrazol-5-yl)isoindolin-1-one], the negative logarithm of the IC50 (pIC50) at Full length Akt1 was above 6.30; against Full length Akt2, above 6.30; at Full length Akt3 it was 5.30 to 6.30; against Full length PKA, below 5.30; in test [1] (setting [2]), above 6.30.

Turning to `Cn1ncc(Br)c1-c1ccc2c(c1)CN([C@H](CN)Cc1cc(F)cc(F)c1)C2=O` [Example 52, 2-[(1S)-2-amino-1-(3,5-difluorobenzyl)ethyl]-5-(4-bromo-1-methyl-1H-pyrazol-5-yl)isoindolin-1-one], the negative logarithm of the IC50 (pIC50) against Full length Akt1 is above 6.30; on Full length Akt2 it was above 6.30; against Full length Akt3, above 6.30; at Full length PKA it was 5.30 to 6.30; in test [1] (setting [2]), above 6.30.

Consider `Cn1ncc(COC2CCC2)c1-c1ccc2c(c1)CN([C@H](CN)Cc1cccc(F)c1)C2=O` [Example 8, 2-[(1S)-2-amino-1-(3-fluorobenzyl)ethyl]-5-(4-cyclobutoxymethyl-1-methyl-1H-pyrazol-5-yl)isoindolin-1-one], for which the pIC50 is above 6.30 against Full length Akt1; above 6.30 against Full length Akt2; above 6.30 against Full length Akt3; 5.30 to 6.30 against Full length PKA; above 6.30 in test [1] (setting [2]).

On to `Cn1nccc1-c1ccc2c(c1)CN([C@@H](CN)c1ccccc1)C2=O` [Example 116, 2-[(1R)-2-amino-1-phenylethyl]-5-(1-methyl-1H-pyrazol-5-yl)isoindolin-1-one], for which the pIC50 was above 6.30 at Full length Akt1; above 6.30 on Full length Akt2; 5.30 to 6.30 on Full length Akt3; 5.30 to 6.30 against Full length PKA; above 6.30 in test [1] (setting [2]).

Regarding `Cn1ncc(COCC2CC2)c1-c1ccc2c(c1)CN([C@H](CN)Cc1cccc(F)c1)C2=O` [Example 9, 2-[(1S)-2-amino-1-(3-fluorobenzyl)ethyl]-5-(4-cyclopropylmethoxymethyl-1-methyl-1H-pyrazol-5-yl)isoindolin-1-one], the negative logarithm of the IC50 (pIC50) on Full length Akt1 was above 6.30; against Full length Akt2 it was above 6.30; against Full length Akt3, above 6.30; against Full length PKA, below 5.30; in test [1] (setting [2]) it was above 6.30.
